According to PMC5435703 (Scientific Reports, 2017):
≈ marks a conversion by molar mass, not a printed value. Read-outs that look alike come from different tables or passages of the source.

Experiments:
[1] = tested on: MRSA-1; test: MIC broth microdilution assay; format: cell-based, Staphylococcus aureus; conditions: Staphylococcus aureus, MRSA; Table 1; read-out: MIC MRSA-1
[2] = tested on: MRSA BAA-44; test: MIC broth microdilution assay; format: cell-based; conditions: Staphylococcus aureus; Table 1; read-out: MIC MRSA BAA-44
[3] = tested on: MRSA-2; test: MIC broth microdilution assay; format: cell-based, Staphylococcus aureus; conditions: Staphylococcus aureus, MRSA; Table 1; read-out: MIC MRSA-2
[4] = tested on: S. epi 12228; test: MIC broth microdilution assay; format: cell-based, Staphylococcus epidermidis; conditions: Staphylococcus epidermidis, 12228
[5] = tested on: MRSE 35984; test: MIC broth microdilution assay; format: cell-based, Staphylococcus epidermidis; conditions: Staphylococcus epidermidis, MRSE
[6] = tested on: VRE 700221; test: MIC broth microdilution assay; format: cell-based, Enterococcus faecium; conditions: Enterococcus, VRE
[7] = tested on: MRSA BAA-1707; test: MIC assay with metal(II) cation co-treatment; format: cell-based, Staphylococcus aureus; conditions: Staphylococcus aureus
[8] = tested on: MRSA BAA-1707; test: MIC broth microdilution assay; format: cell-based, Staphylococcus aureus
[9] = tested on: MRSA BAA-1707; test: Calgary Biofilm Device (CBD) MBC/MBEC assay; format: cell-based, Staphylococcus aureus; conditions: for MBC: read-out: MRSA BAA-1707 MBC
[10] = tested on: MtB H37Ra; test: MIC assay for Mycobacterium tuberculosis; format: cell-based
[11] = Hemolysis assay with red blood cells; conditions: human, pH 7.2
[12] = tested on: MRSE 35984; test: Calgary Biofilm Device (CBD) MBC/MBEC assay; format: cell-based, Staphylococcus epidermidis; conditions: Staphylococcus epidermidis, MRSE; CBD, planktonic killing; read-out: MRSE 35984 MBC
[13] = LDH release assay for HeLa cytotoxicity; format: cell-based; conditions: human, HeLa cells; LDH release, 24 hours; tested at 25, 50 and 100 µM; read-out: HeLa Cytotox. IC50
[14] = tested on: four MRSA isolates; test: MIC assays, panel of four MRSA isolates; format: cell-based; conditions: Staphylococcus aureus, range over isolates, read-out: MIC against a panel of four MRSA isolates
[15] = Table 1, read-out: MIC S. epi 12228
[16] = Table 1, read-out: MIC MRSE 35984
[17] = Table 1, read-out: MIC VRE 700221
[18] = Staphylococcus aureus, Table 1, three independent experiments, read-out: MIC MRSA BAA-1707
[19] = Staphylococcus aureus, Table 3, read-out: MRSA BAA-1707 MIC
[20] = Table 3, read-out: MRSE 35984 MIC
[21] = Table 3, read-out: VRE 700221 MIC
[22] = single plate shown as picture, read-out: MIC (µM), MIC Assay Against MRSE 35984
[23] = Staphylococcus aureus, single plate shown as picture, read-out: MIC (µM), MIC Assay against MRSA BAA-1707
[24] = single plate shown as picture, read-out: MIC (µM), MIC Assay Against S. epidermidis 12228

Question: Which MIC [1] does the source give for `Cc1ccc2nc3c(O)c(Br)cc(C)c3nc2c1C` [HP 7] here?
Answer: Its MIC is 50 µM (≈ 15.9 µg/mL).

Question: Which results are given for `Cc1cc(Br)c(O)c2nc3cccc(Cl)c3nc12` [HP 11]?
Answer: MIC [2]: 3.13 µM (≈ 1.01 µg/mL); MIC [3]: 3.13 µM (≈ 1.01 µg/mL); MIC [4, 15]: 1.56 µM (≈ 0.505 µg/mL); MIC [5, 16]: 1.56 µM (≈ 0.505 µg/mL); MIC [6, 17]: 3.13 µM (≈ 1.01 µg/mL)

Question: With `C[C@H]1c2cccc(O)c2C(=O)C2=C(O)[C@]3(O)C(=O)C(C(N)=O)=C(O)[C@@H](N(C)C)[C@@H]3[C@@H](O)[C@@H]21` [Doxy., Doxycycline, reference compound] as the compound, how does the MIC ([7]; Table 2, MRSA BAA-1707, no metal(II) cation added, read-out: MIC) read?
Answer: Its MIC is 0.78 µM.

Question: And the MIC ([7]; copper(II) at 200 µM co-treatment, read-out: MIC w/Cu2+)?
Answer: Its MIC is 0.78 µM.

Question: And the MIC ([7]; iron(II) at 200 µM co-treatment, read-out: MIC w/Fe2+)?
Answer: The MIC was 3.13 µM.

Question: What about the MIC ([7]; magnesium(II) at 200 µM co-treatment, read-out: MIC w/Mg2+) of the same compound?
Answer: The MIC was 0.78 µM.

Question: And the MIC ([7]; zinc(II) at 200 µM co-treatment, read-out: MIC w/Zn2+)?
Answer: Its MIC is 0.39 µM.

Question: What does the source list for `CC(=O)NC[C@H]1CN(c2ccc(N3CCOCC3)c(F)c2)C(=O)O1` [linezolid, reference compound]?
Answer: MIC [8, 18]: 12.5 µM (≈ 4.22 µg/mL); MIC [8, 19]: 12.5 µM (≈ 4.22 µg/mL); MRSA BAA-1707 MBEC ([9]; CBD, biofilm eradication, 24 hours treatment): > 2000 µM; MBC ([9]; Staphylococcus aureus, 24 h): 31.3 µM (≈ 10.6 µg/mL); minimal effective concentration ([9]; Staphylococcus aureus, 24 h, read-out: MRSA BAA-1707 MBEC): > 2000 µM; MIC [3]: 3.13 µM (≈ 1.06 µg/mL); MIC [5, 16]: 3.13 µM (≈ 1.06 µg/mL); MIC [5, 20]: 3.13 µM (≈ 1.06 µg/mL); MIC [6, 17]: 3.13 µM (≈ 1.06 µg/mL); MIC [6, 21]: 3.13 µM (≈ 1.06 µg/mL)

Question: For `Cc1cc(Br)c(O)c2nc3cc(Cl)ccc3nc12` [HP 12], which MIC [1] is on record?
Answer: The MIC was 75 µM (≈ 24.3 µg/mL).

Question: And the MIC [6, 17]?
Answer: The MIC was 12.5 µM (≈ 4.04 µg/mL).

Question: Which MIC ([10]; 168 h, seven days) does the source give for `[H]/N=C(/N)N[C@H]1[C@H](O)[C@@H](O)[C@H](O[C@@H]2O[C@@H](C)[C@](O)(C=O)[C@H]2O[C@@H]2O[C@@H](CO)[C@H](O)[C@@H](O)[C@@H]2NC)[C@@H](N/C(N)=N\[H])[C@@H]1O` [streptomycin, reference compound] here?
Answer: Its MIC is 1.32 µM.

Question: With `Cc1cc(Br)c(O)c2nc3cc(C(C)(C)C)ccc3nc12` [HP 8] as the compound, how does the MIC [8, 18] read?
Answer: The MIC was > 100 µM.

Question: What about the MIC ([8]; Table 1, three independent experiments, read-out: MIC MRSA BAA-1707) of the same compound?
Answer: Its MIC is >100 µM.

Question: What about the MIC [1] of the same compound?
Answer: The MIC was > 100 µM.

Question: What about the MIC [5, 16] of the same compound?
Answer: Its MIC is > 100 µM.

Question: What about the MIC [5, 22] of the same compound?
Answer: The MIC was > 100 µM.

Question: What about the MIC [6, 17] of the same compound?
Answer: Its MIC is > 100 µM.

Question: With `Cc1cc(Br)c(O)c2nc3ccccc3nc12` [HP 4] as the compound, how does the MIC [2] read?
Answer: Its MIC is 50 µM (≈ 14.5 µg/mL).

Question: What about the hemolysis at 1 h, 200 µM [11] of the same compound?
Answer: Its hemolysis at 1 h, 200 µM is ≤ 1%.

Question: What about the MIC [8, 18] of the same compound?
Answer: The MIC was 3.13 µM (≈ 0.905 µg/mL).

Question: And the MIC [8, 19]?
Answer: Its MIC is 3.13 µM (≈ 0.905 µg/mL).

Question: What about the MIC [8, 23] of the same compound?
Answer: The MIC was 3.13 µM (≈ 0.905 µg/mL).

Question: What about the MBC [12] of the same compound?
Answer: Its MBC is 150 µM (≈ 43.4 µg/mL).

Question: What about the IC50 at 24 h [13] of the same compound?
Answer: The IC50 at 24 h was > 100 µM.

Question: And the MBC ([9]; Staphylococcus aureus, 24 h, CBD, planktonic killing, 24 hours treatment)?
Answer: The MBC was 46.9 µM (≈ 13.6 µg/mL).

Question: What about the MIC [1] of the same compound?
Answer: Its MIC is 50 µM (≈ 14.5 µg/mL).

Question: And the MIC [3]?
Answer: The MIC was 3.13 µM (≈ 0.905 µg/mL).

Question: And the MIC [4, 15]?
Answer: Its MIC is 3.13 µM (≈ 0.905 µg/mL).

Question: And the MIC [6, 17]?
Answer: Its MIC is 3.13 µM (≈ 0.905 µg/mL).

Question: And the MIC [6, 21]?
Answer: Its MIC is 3.13 µM (≈ 0.905 µg/mL).

Question: Which hemolysis at 1 h, 200 µM [11] does the source give for `Oc1c(Br)cc(Br)c2nc3ccc(Cl)cc3nc12` [HP 22] here?
Answer: Its hemolysis at 1 h, 200 µM is ≤ 1%.

Question: What about the MIC [8, 18] of the same compound?
Answer: Its MIC is 0.15 µM (≈ 0.0583 µg/mL).

Question: And the MIC [8, 19]?
Answer: Its MIC is 0.15 µM (≈ 0.0583 µg/mL).

Question: What about the MIC [8, 23] of the same compound?
Answer: Its MIC is 0.1 µM (≈ 0.0388 µg/mL).

Question: What about the IC50 at 24 h [13] of the same compound?
Answer: Its IC50 at 24 h is > 100 µM.

Question: What about the MIC [14] of the same compound?
Answer: Its MIC is 0.05 to 0.59 µM (≈ 0.0194 to 0.229 µg/mL).

Question: What about the MIC [1] of the same compound?
Answer: Its MIC is 0.15 µM (≈ 0.0583 µg/mL).

Question: And the MIC [10]?
Answer: Its MIC is 2.4 µg/mL.

Question: And the MIC ([10]; 168 h, seven days)?
Answer: The MIC was 6.25 µM.

Question: What about the MIC [4, 15] of the same compound?
Answer: The MIC was 12.5 µM (≈ 4.86 µg/mL).

Question: What about the MIC [4, 24] of the same compound?
Answer: Its MIC is 12.5 µM (≈ 4.86 µg/mL).

Question: Which results are given for `Cc1ccc2nc3c(O)c(Br)cc(Br)c3nc2c1C` [HP 19]?
Answer: hemolysis at 1 h, 200 µM [11]: 5.3%; MIC [8, 18]: 0.15 µM (≈ 0.0573 µg/mL); MIC [8, 19]: 0.15 µM (≈ 0.0573 µg/mL); MIC [8, 23]: 0.1 µM (≈ 0.0382 µg/mL); IC50 at 24 h [13]: > 100 µM; MIC [4, 15]: 6.25 µM (≈ 2.39 µg/mL); MIC [4, 24]: 6.25 µM (≈ 2.39 µg/mL); MIC [5, 20]: 0.3 µM (≈ 0.115 µg/mL); MIC [5, 22]: 0.2 µM (≈ 0.0764 µg/mL); MIC [6, 17]: 0.15 to 1.56 µM (≈ 0.0573 to 0.596 µg/mL); MIC [6, 21]: 0.15 µM (≈ 0.0573 µg/mL); MIC ([6]; single plate shown as picture, read-out: MIC (µM), MIC Assay Against VRE 700221): 0.2 µM (≈ 0.0764 µg/mL)

Question: Which MIC [1] does the source give for `Oc1c(Br)cc(Br)c2nc3ccc(Oc4ccccc4)cc3nc12` [HP 16] here?
Answer: The MIC was 25 µM (≈ 11.2 µg/mL).

Question: With `Cc1cc(Br)c(O)c2nc3cccc(Br)c3nc12` [HP 13] as the compound, how does the MIC [8, 18] read?
Answer: The MIC was 1.17 µM (≈ 0.431 µg/mL).

Question: And the MIC [8, 23]?
Answer: The MIC was 0.78 µM (≈ 0.287 µg/mL).

Question: And the MIC [3]?
Answer: The MIC was 2.35 µM (≈ 0.865 µg/mL).
